Test results: US8791148B2, “Substituted benzimidazolone derivatives, medicaments comprising them and their use” (AbbVie Deutschland GmbH & Co. KG, priority 2006, dated 2014)

Molecular target: T1, human vasopressin V1b receptor (Homo sapiens, UniProt P47901)
T1 construct: expressed in transfected cells; host or cells: CHO-K1 (cell line hV1b-3H2_CHO), membrane preparation
T1 sequence (P47901 1-424): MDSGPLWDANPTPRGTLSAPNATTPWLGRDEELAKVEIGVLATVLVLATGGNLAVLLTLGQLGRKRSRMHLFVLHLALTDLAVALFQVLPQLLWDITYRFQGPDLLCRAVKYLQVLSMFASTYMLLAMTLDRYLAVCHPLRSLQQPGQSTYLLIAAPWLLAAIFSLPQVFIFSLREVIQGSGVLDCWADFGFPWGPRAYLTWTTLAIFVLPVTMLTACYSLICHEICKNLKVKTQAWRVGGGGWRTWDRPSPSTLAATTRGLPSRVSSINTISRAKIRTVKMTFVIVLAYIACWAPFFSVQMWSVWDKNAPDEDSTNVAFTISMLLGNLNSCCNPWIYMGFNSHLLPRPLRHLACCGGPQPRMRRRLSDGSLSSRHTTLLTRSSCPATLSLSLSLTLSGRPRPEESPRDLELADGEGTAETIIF
Assay: Vasopressin V1b receptor binding assay
Conditions: membranes from CHO-K1 cells with stably expressed human V1b receptors; displacement of 1.5 nM 3H-AVP; read-out: V1b receptor affinity (affinity constant Ki)
Procedure: Vasopressin V1b Receptor Binding Assay:
The test substances were dissolved in a concentration of 10^−2 M in DMSO and further diluted to 5×10^−4 M to 5×10^−9 M in DMSO. This series of DMSO predilutions was diluted 1:10 with assay buffer. The substance concentration was again diluted 1:5 in the assay mixture (2% DMSO in the mixture).
The membrane pellet was again homogenized and centrifuged as described and then taken up in 50 mM Tris-HCl, pH 7.4, homogenized and stored in aliquots frozen in liquid nitrogen at −190° C.
The incubation buffer was: 50 mM Tris, 10 mM MgCl2, 0.1% BSA, pH 7.4. […] The nonspecific binding was determined with 1 uM AVP (Bachem #H1780). All determinations were carried out as triplicate determinations. After incubation (60 minutes at room temperature), the free radioligand was removed by vacuum filtration (Skatron cell harvester 7000) through Wathman GF/B glass fiber filter mats, and the filters were transferred into scintillation vials. The liquid scintillation measurement took place in a Tricarb model 2000 or 2200CA instrument (Packard). Conversion of the measured cpm into dpm was carried out with the aid of a standard quench series.
The binding parameters were calculated by nonlinear regression in SAS.
The above assay was used to measure the affinities of the compounds of the invention for the human vasopressin V1b receptor and to determine the affinity constants (Ki).

| Ki | Compound |
| --- | --- |
| < 100 nM | CCN1CCN([C@H]2CCN(C(=O)C(c3ccccc3)n3c(=O)n(S(=O)(=O)c4ccc(OC)cc4)c4ccc(Cl)cc43)C2)CC1 (stereo partly drawn) [Example 152, 5-Chloro-3-{2-[(S)-3-(4-ethylpiperazin-1-yl)pyrrolidin-1-yl]-2-oxo-1-phenylethyl}-1-(4-methoxybenzenesulfonyl)-1,3-dihydrobenzimidazol-2-one] |
| < 100 nM | COc1ccc(S(=O)(=O)n2c(=O)n(C(C(=O)N3CC[C@@H](N4CCNCC4)C3)c3ccccc3)c3cc(Cl)ccc32)cc1 (stereo partly drawn) [Example 145, 5-Chloro-1-(4-methoxybenzenesulfonyl)-3-[2-oxo-1-phenyl-2-((R)-3-piperazin-1-yl-pyrrolidin-1-yl)-ethyl]-1,3-dihydrobenzimidazol-2-one] |
| < 100 nM | CCN(CCN(C)C)C(=O)C(c1ccccc1)n1c(=O)n(S(=O)(=O)c2ccc(OC)cc2)c2ccc(Cl)cc21 (centres unmarked) [Example 118, 2-[6-Chloro-3-(4-methoxybenzenesulfonyl)-2-oxo-2,3-dihydrobenzimidazol-1-yl]-N-(2-dimethylaminoethyl)-N-ethyl-2-phenylacetamide] |
| 100 to 500 nM | CCCN1CCN([C@H]2CCN(C(=O)C(c3ccccc3)n3c(=O)n(S(=O)(=O)c4cccs4)c4ccc(C#N)cc43)C2)CC1 (stereo partly drawn) [Example 201, 2-oxo-3-{2-oxo-1-phenyl-2-[(S)-3-(4-propylpiperazin-1-yl)pyrrolidin-1-yl]-ethyl}-1-(thiophene-2-sulfonyl)-2,3-dihydro-1H-benzimidazole-5-carbonitrile] |
| < 100 nM | COc1ccc(S(=O)(=O)n2c(=O)n(C(C(=O)N3CC[C@H](CN4CCNCC4)C3)c3ccccc3)c3cc(C#N)ccc32)cc1 (stereo partly drawn) [Example 226, 1-(4-Methoxy-benzenesulfonyl)-2-oxo-3-[2-oxo-1-phenyl-2-((R)-3-piperazin-1-ylmethyl-pyrrolidin-1-yl)-ethyl]-2,3-dihydro-1H-benzoimidazole-5-carbonitrile] |
| < 100 nM | COc1ccc(S(=O)(=O)n2c(=O)n(C(C(=O)N3CCCC(N4CCN(Cc5ccccc5)CC4)C3)c3ccccc3)c3cc(Cl)ccc32)cc1 (centres unmarked) [Example 139, 3-{2-[3-(4-Benzylpiperazin-1-yl)piperidin-1-yl]-2-oxo-1-phenylethyl}-5-chloro-1-(4-methoxybenzenesulfonyl)-1,3-dihydrobenzimidazol-2-one] |
| < 100 nM | COc1ccc(S(=O)(=O)n2c(=O)n(C(C(=O)N3CCN(c4ccncc4)CC3)c3ccccc3)c3cc(I)ccc32)cc1 (centres unmarked) [Example 4, 5-Iodo-1-(4-methoxybenzenesulfonyl)-3-[2-oxo-1-phenyl-2-(4-pyridin-4-ylpiperazin-1-yl)ethyl]-1,3-dihydrobenzimidazol-2-one] |
| < 100 nM | COc1ccc(S(=O)(=O)n2c(=O)n(C(Cc3ccccc3)C(=O)N3CCN(c4ccncc4)CC3)c3cc(Cl)ccc32)c(OC)c1 (centres unmarked) [Example 28, 3-[1-Benzyl-2-oxo-2-(4-pyridin-4-ylpiperazin-1-yl)ethyl]-5-chloro-1-(2,4-dimethoxybenzenesulfonyl)-1,3-dihydrobenzimidazol-2-one] |
| < 100 nM | COc1ccc(S(=O)(=O)n2c(=O)n(C(C(=O)N3CC[C@@H](NC4CCNCC4)C3)c3ccccc3)c3cc(Cl)ccc32)cc1 (stereo partly drawn) [Example 176, 5-Chloro-1-(4-methoxybenzenesulfonyl)-3-{2-oxo-1-phenyl-2-[(R)-3-(piperidin-4-ylamino)pyrrolidin-1-yl]ethyl}-1,3-dihydrobenzimidazol-2-one] |
| 100 to 500 nM | COc1ccc(S(=O)(=O)n2c(=O)n(C(C(=O)N3CCC[C@H]3c3ncon3)c3ccccc3)c3cc(Cl)ccc32)cc1 (stereo partly drawn) [Example 110, 5-Chloro-1-(4-methoxybenzenesulfonyl)-3-[2-((S)-2-[1,2,4]oxadiazol-3-ylpyrrolidin-1-yl)-2-oxo-1-phenylethyl]-1,3-dihydrobenzimidazol-2-one] |
| 500 to 10000 nM | COc1ccc(S(=O)(=O)n2c(=O)n(C(C(=O)NCc3ccccc3)c3ccccc3)c3cc(Cl)ccc32)cc1 (centres unmarked) [Example 100, N-Benzyl-2-[6-chloro-3-(4-methoxybenzenesulfonyl)-2-oxo-2,3-dihydrobenzimidazol-1-yl]-2-phenylacetamide] |
| < 100 nM | CCN1CCC(N[C@H]2CCN(C(=O)C(c3ccccc3)n3c(=O)n(S(=O)(=O)c4ccc(OC)cc4)c4ccc(C#N)cc43)C2)CC1 (stereo partly drawn) [Example 209, 3-{2-[(S)-3-(1-Ethylpiperidin-4-ylamino)pyrrolidin-1-yl]-2-oxo-1-phenylethyl}-1-(4-methoxybenzenesulfonyl)-2-oxo-2,3-dihydro-1H-benzimidazole-5-carbonitrile] |
| < 100 nM | COc1ccc(S(=O)(=O)n2c(=O)n(C(C(=O)N3CCC[C@@H](NC4CCN(C(C)C)CC4)C3)c3ccccc3)c3cc(C#N)ccc32)cc1 (stereo partly drawn) [Example 249, 3-{2-[(R)-3-(1-Isopropyl-piperidin-4-ylamino)-piperidin-1-yl]-2-oxo-1-phenylethyl}-1-(4-methoxy-benzenesulfonyl)-2-oxo-2,3-dihydro-1H-benzoimidazole-5-carbonitrile] |
| < 100 nM | CCCN1CCN(C2CCN(C(=O)C(c3ccccc3OC)n3c(=O)n(S(=O)(=O)c4ccc(OC)cc4)c4ccc(Cl)cc43)C2)CC1 (centres unmarked) [Example 76, 5-Chloro-1-(4-methoxybenzenesulfonyl)-3-{1-(2-methoxyphenyl)-2-oxo-2-[3-(4-propylpiperazin-1-yl)pyrrolidin-1-yl]ethyl}-1,3-dihydrobenzimidazol-2-one] |
| 500 to 10000 nM | COc1ccc(S(=O)(=O)n2c(=O)n(C(C(=O)N3CCN(C4CCN(C)CC4)CC3)c3ccccc3)c3cc(Cl)c(Cl)cc32)cc1 (centres unmarked) [Example 36, 5,6-Dichloro-1-(4-methoxybenzenesulfonyl)-3-{2-[4-(1-methylpiperidin-4-yl)piperazin-1-yl]-2-oxo-1-phenylethyl}-1,3-dihydrobenzimidazol-2-one] |
| < 100 nM | COc1ccc(S(=O)(=O)n2c(=O)n(C(C(=O)N3CC[C@H](CN4CCN(C(C)C)CC4)C3)c3ccccc3)c3cc(C#N)ccc32)cc1 (stereo partly drawn) [Example 238, 3-{2-[(R)-3-(4-Isopropyl-piperazin-1-ylmethyl)-pyrrolidin-1-yl]-2-oxo-1-phenylethyl}-1-(4-methoxy-benzenesulfonyl)-2-oxo-2,3-dihydro-1H-benzoimidazole-5-carbonitrile; compound with trifluoroacetic acid] |
| < 100 nM | CCCN1CCN([C@@H]2CCN(C(=O)C(c3ccccc3)n3c(=O)n(S(=O)(=O)c4ccc(OC)cc4)c4ccc(Cl)cc43)C2)CC1 (stereo partly drawn) [Example 157, 5-Chloro-1-(4-methoxybenzenesulfonyl)-3-{2-oxo-1-phenyl-2-[(R)-3-(4-propylpiperazin-1-yl)pyrrolidin-1-yl]ethyl}-1,3-dihydrobenzimidazol-2-one] |
| 100 to 500 nM | COc1ccccc1S(=O)(=O)n1c(=O)n(C(C(=O)N2CCN(c3ccncc3)CC2)c2ccccc2)c2cc(Cl)ccc21 (centres unmarked) [Example 45, 5-Chloro-1-(2-methoxybenzenesulfonyl)-3-[2-oxo-1-phenyl-2-(4-pyridin-4-ylpiperazin-1-yl)ethyl]-1,3-dihydrobenzimidazol-2-one] |
| < 100 nM | CCCN1CCN(C2CCCN(C(=O)C(c3ccccc3)n3c(=O)n(S(=O)(=O)c4ccc(OC)cc4)c4ccc(Cl)cc43)C2)CC1 (centres unmarked) [Example 155, 5-Chloro-1-(4-methoxybenzenesulfonyl)-3-{2-oxo-1-phenyl-2-[3-(4-propylpiperazin-1-yl)piperidin-1-yl]ethyl}-1,3-dihydrobenzimidazol-2-one] |
| 500 to 10000 nM | COc1ccc(S(=O)(=O)n2c(=O)n(C(C(=O)NCCc3c[nH]cn3)c3ccccc3)c3cc(Cl)ccc32)cc1 (centres unmarked) [Example 116] |
| 500 to 10000 nM | O=C(C(c1ccccc1)n1c(=O)n(S(=O)(=O)c2ccc(Cl)s2)c2ccc(Cl)cc21)N1CCN(c2ccncc2)CC1 (centres unmarked) [Example 7, 5-Chloro-1-(5-chlorothiophene-2-sulfonyl)-3-[2-oxo-1-phenyl-2-(4-pyridin-4-ylpiperazin-1-yl)ethyl]-1,3-dihydrobenzimidazol-2-one] |
| 500 to 10000 nM | COc1ccc(S(=O)(=O)n2c(=O)n(C(C(=O)N3CCN(c4ccccc4)CC3)c3ccccc3)c3cc(Cl)ccc32)cc1 (centres unmarked) [Example 105, 5-Chloro-1-(4-methoxybenzenesulfonyl)-3-[2-oxo-1-phenyl-2-(4-phenylpiperazin-1-yl)ethyl]-1,3-dihydrobenzimidazol-2-one] |
| 100 to 500 nM | CCCN1CCN(C2CCN(C(=O)C(C)n3c(=O)n(S(=O)(=O)c4ccc(OC)cc4)c4ccc(Cl)cc43)C2)CC1 (centres unmarked) [Example 75, 5-Chloro-1-(4-methoxybenzenesulfonyl)-3-{1-methyl-2-oxo-2-[3-(4-propylpiperazin-1-yl)-pyrrolidin-1-yl]ethyl}-1,3-dihydrobenzimidazol-2-one] |
